Data from patent US11192867B2, “Microbiocidal oxadiazole derivatives” (SYNGENTA PARTICIPATIONS AG, priority 2016, dated 2021).

Tests used:
[1] = tested on: Puccinia recondita f. sp. Tritici; assay: Fungicidal activity against Puccinia recondita f. sp. Tritici / wheat / leaf disc preventative (brown rust); type: in vivo; conditions: foliar, 200 ppm in the applied formulation, wheat leaf segments cv. Kanzler, inoculated 1 day after application, vs untreated control, read-out: disease control
Procedure, shortened: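 Compound, diluted from DMSO solution into aqueous 0.025% Tween20, is sprayed at 200 ppm onto cut wheat segments (cv. Kanzler) placed on water agar. One day on, segments receive a fungal spore suspension and are incubated at 19° C., 75% rh, 12 h photoperiod, with % control vs untreated scored at 7–9 days.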

[2] = tested on: Phakopsora pachyrhizi; assay: Fungicidal activity against Phakopsora pachyrhizi / soybean / leaf disc preventative (Asian soybean rust); type: in vivo; conditions: foliar, 200 ppm in the applied formulation, soybean leaf disks, vs untreated control, read-out: disease control
Procedure, shortened: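 Soybean leaf discs on water agar sprayed with compound diluted in water, then inoculated with spores on the lower surface one day later. Kept 24-36 h dark, 20 °C, 75% rh, then 12 h light/12 h dark. Percent disease control versus untreated scored 12-14 days after application.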

[3] = tested on: Glomerella lagenarium (Colletotrichum lagenarium); assay: Fungicidal activity against Glomerella lagenarium (Colletotrichum lagenarium) liquid culture / cucumber / preventative (anthracnose); type: cell-based; conditions: Colletotrichum orbiculare, 72 h; 20 ppm in the applied formulation; liquid culture (PDB), growth inhibition measured photometrically 3 to 4 days after application; vs untreated control; read-out: disease control
Procedure, shortened: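 In liquid culture, cryo-stored conidia in potato dextrose broth were exposed to compound delivered from DMSO solution. Growth inhibition was measured photometrically after 3 to 4 days at 24° C.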

[4] = tested on: Puccinia recondita f. sp. Tritici; assay: Fungicidal activity against Puccinia recondita f. sp. Tritici / wheat / leaf disc curative (brown rust); type: in vivo; conditions: foliar, 24 h, 200 ppm in the applied formulation, wheat leaf segments cv. Kanzler, applied 1 day after inoculation, vs untreated control, read-out: disease control
Procedure, shortened: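 Spray application came one day after spore inoculation of Kanzler wheat leaf segments kept on agar. Conditions: 19° C, 75% relative humidity, dark before treatment and 12 h light/12 h dark after. Efficacy = % disease control compared with untreated, 6–8 days post-application.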

SMILES	pest or weed control at 200 ppm [1] [%]	pest or weed control at 200 ppm [2] [%]	inhibition of growth at 20 ppm [3] [%]	melting point [°C]	pest or weed control at 200 ppm [4] [%]
CO/N=C(\C)C(NC(=O)c1ccc(-c2noc(C(F)(F)F)n2)cc1)OC (centres unmarked) [Compound 1.7, N-[(2E)-1-methoxy-2-methoxyimino-propyl]-4-[5-(trifluoromethyl)-1,2,4-oxadiazol-3-yl]benzamide]	≥ 80	≥ 80	≥ 80	100.7 to 106.9	≥ 80
CCO/N=C/C(C)NC(=O)c1ccc(-c2noc(C(F)(F)F)n2)cc1 (centres unmarked) [Compound 1.8, N-[(2E)-2-ethoxyimino-1-methyl-ethyl]-4-[5-(trifluoromethyl)-1,2,4-oxadiazol-3-yl]benzamide]	≥ 80	≥ 80	≥ 80	142 to 143	≥ 80
CCO/N=C\C(C)NC(=O)c1ccc(-c2noc(C(F)(F)F)n2)cc1 (centres unmarked) [Compound 1.9, N-[(2Z)-2-ethoxyimino-1-methyl-ethyl]-4-[5-(trifluoromethyl)-1,2,4-oxadiazol-3-yl]benzamide]	≥ 80	≥ 80	≥ 80	173 to 174	≥ 80
CON=CCNC(=O)c1ccc(-c2noc(C(F)(F)F)n2)cc1 [Compound 1.10, N-(2-methoxyimino-ethyl)-4-[5-(trifluoromethyl)-1,2,4-oxadiazol-3-yl]benzamide]	≥ 80	≥ 80	≥ 80	155 to 157	≥ 80
CCON=CCNC(=O)c1ccc(-c2noc(C(F)(F)F)n2)cc1 [Compound 1.11, N-(2-ethoxyiminoethyl)-4-[5-(trifluoromethyl)-1,2,4-oxadiazol-3-yl]benzamide]	≥ 80	≥ 80	≥ 80	156 to 158	≥ 80
CCON=C(C)CNC(=O)c1ccc(-c2noc(C(F)(F)F)n2)cc1 [Compound 1.12, N-(2-ethoxyimino-propyl)-4-[5-(trifluoromethyl)-1,2,4-oxadiazol-3-yl]benzamide]	≥ 80	≥ 80	≥ 80	135 to 136	≥ 80
CO/N=C(\C)CNC(=O)c1ccc(-c2noc(C(F)(F)F)n2)cc1 [Compound 1.13, N-[(2E)-2-methoxyimino-propyl]-4-[5-(trifluoromethyl)-1,2,4-oxadiazol-3-yl]benzamide]	≥ 80	≥ 80	≥ 80	145 to 146	≥ 80
CO/N=C(/C)CNC(=O)c1ccc(-c2noc(C(F)(F)F)n2)cc1 [Compound 1.14, N-[(2Z)-2-methoxyimino-propyl]-4-[5-(trifluoromethyl)-1,2,4-oxadiazol-3-yl]benzamide]	≥ 80	≥ 80	≥ 80	151 to 152	≥ 80
O=C(NCC=NOCCF)c1ccc(-c2noc(C(F)(F)F)n2)cc1 [Compound 1.148, N-[2-(2-fluoroethoxyimino)ethyl]-4-[5-(trifluoromethyl)-1,2,4-oxadiazol-3-yl]benzamide]	≥ 80	≥ 80	≥ 80	145 to 146	≥ 80
CC(/C=N/OCCF)NC(=O)c1ccc(-c2noc(C(F)(F)F)n2)cc1 (centres unmarked) [Compound 1.149, N-[(2E)-2-(2-fluoroethoxy-imino)-1-methyl-ethyl]-4-[5-(trifluoromethyl)-1,2,4-oxadiazol-3-yl]benzamide]	≥ 80	≥ 80	≥ 80	138 to 139	≥ 80
CC(/C=N\OCCF)NC(=O)c1ccc(-c2noc(C(F)(F)F)n2)cc1 (centres unmarked) [Compound 1.150, N-[(2Z)-2-(2-fluoroethoxyimino)-1-methyl-ethyl]-4-[5-(trifluoromethyl)-1,2,4-oxadiazol-3-yl]benzamide]	≥ 80	≥ 80	≥ 80	172 to 173	≥ 80
CC(CNC(=O)c1ccc(-c2noc(C(F)(F)F)n2)cc1)=NOCCF [Compound 1.151, N-[2-(2-fluoroethoxyimino)propyl]-4-[5-(trifluoromethyl)-1,2,4-oxadiazol-3-yl]benzamide]	≥ 80	≥ 80	≥ 80	133 to 134	≥ 80
CON=CCCNC(=O)c1ccc(-c2noc(C(F)(F)F)n2)cc1 [Compound 1.152, N-(3-methoxyimino-propyl)-4-[5-(trifluoromethyl)-1,2,4-oxadiazol-3-yl]benzamide]	≥ 80	≥ 80	≥ 80	136 to 140	≥ 80
CCON=CCCNC(=O)c1ccc(-c2noc(C(F)(F)F)n2)cc1 [Compound 1.153, N-(3-ethoxyiminopropyl)-4-[5-(trifluoromethyl)-1,2,4-oxadiazol-3-yl]benzamide]	≥ 80	≥ 80	≥ 80	132 to 136	≥ 80
O=C(NCCC=NO)c1ccc(-c2noc(C(F)(F)F)n2)cc1 [Compound 1.154, N-(3-hydroxyimino-propyl)-4-[5-(trifluoromethyl)-1,2,4-oxadiazol-3-yl]benzamide]	≥ 80	≥ 80	≥ 80	180 to 183	≥ 80
CON=C(C)CNC(=O)c1ccc(-c2noc(C(F)(F)F)n2)cc1F [Compound 1.157, 2-fluoro-N-(2-methoxyimino-propyl)-4-[5-(trifluoromethyl)-1,2,4-oxadiazol-3-yl]benzamide]	≥ 80	≥ 80	≥ 80	122 to 124	≥ 80
CCON=C(C)CNC(=O)c1ccc(-c2noc(C(F)(F)F)n2)cc1F [Compound 1.158, N-(2-ethoxyiminopropyl)-2-fluoro-4-[5-(trifluoromethyl)-1,2,4-oxadiazol-3-yl]benzamide]	≥ 80	≥ 80	≥ 80	120 to 122	≥ 80
CON=CC(C)NC(=O)c1ccc(-c2noc(C(F)(F)F)n2)c(F)c1 (centres unmarked) [Compound 1.159, 3-fluoro-N-(2-methoxyimino-1-methyl-ethyl)-4-[5-(trifluoromethyl)-1,2,4-oxadiazol-3-yl]benzamide]	≥ 80	≥ 80	≥ 80	119 to 121	≥ 80
CON=CCCNC(=O)c1ccc(-c2noc(C(F)(F)F)n2)c(F)c1 [Compound 1.160, 3-fluoro-N-(3-methoxyiminopropyl)-4-[5-(trifluoromethyl)-1,2,4-oxadiazol-3-yl]benzamide]	≥ 80	≥ 80	≥ 80	103 to 108	≥ 80
CCON=CCCNC(=O)c1ccc(-c2noc(C(F)(F)F)n2)c(F)c1 [Compound 1.161, N-(3-ethoxyiminopropyl)-3-fluoro-4-[5-(trifluoromethyl)-1,2,4-oxadiazol-3-yl]benzamide]	≥ 80	≥ 80	≥ 80	108 to 110	≥ 80
CCON=CCCNC(=O)c1ccc(-c2noc(C(F)(F)F)n2)cc1F [Compound 1.162, N-(3-ethoxyiminopropyl)-2-fluoro-4-[5-(trifluoromethyl)-1,2,4-oxadiazol-3-yl]benzamide]	≥ 80	≥ 80	≥ 80	97 to 99	≥ 80
CON=CCCNC(=O)c1ccc(-c2noc(C(F)(F)F)n2)cc1F [Compound 1.163, 2-fluoro-N-(3-methoxyimino-propyl)-4-[5-(trifluoromethyl)-1,2,4-oxadiazol-3-yl]benzamide]	≥ 80	≥ 80	≥ 80	98 to 100	≥ 80
